According to PMC11992225, “Antibacterial compounds against non-growing and intracellular bacteria” (npj Antimicrobials and Resistance, 2025):

Key:
[1] = tested on: non-growing S. aureus DSM2569; assay: Dose-dependent killing analysis (CFU spot-plating) of stationary-phase S. aureus;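 for average Δlog10(CFU/ml) (killing): drug concentration in µM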; assay type: cell-based, Staphylococcus aureus; conditions: S. aureus; for average Δlog10(CFU/ml) (killing): vs 9,097 before treatment
Outline: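 Stationary-phase S. aureus DSM2569 was grown and treated for 24 h in 1:4 CA-MHB at pH 7.4. Treated samples were serially diluted 10-fold in PBS and spot-plated on LB agar, which was incubated overnight at 37 °C. Survivors were counted as CFU over three biological replicates.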

non-growing UPEC CFT073 = assay: Dose-dependent killing analysis (CFU spot-plating) of stationary-phase UPEC; assay type: cell-based, Escherichia coli;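 for average Δlog10(CFU/ml) (killing): drug concentration in µM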
Outline: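 Non-growing (stationary-phase) UPEC CFT073 treated with compounds in 96-well format at 200 μl, then 10-fold serially diluted in PBS and 10 μl spots plated on LB agar. Plates incubated overnight at 37 °C; colonies counted at lowest resolvable dilution to give CFU. Three biological replicates.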

[2] = tested on: intracellular S. flexneri 5a M90T in TC7 cells; assay: microbe, parasite or virus in culture; assay type: cell-based, Shigella flexneri
[3] = E. coli in 1:4 CA-MHB (pH 7.4), drug conc. 0.25
[4] = E. coli in 1:4 CA-MHB (pH 7.4), drug conc. 0.5
[5] = E. coli in 1:4 CA-MHB (pH 7.4), drug conc. 1
[6] = E. coli in 1:4 CA-MHB (pH 7.4), drug conc. 2.5
[7] = E. coli in 1:4 CA-MHB (pH 7.4), drug conc. 5
[8] = E. coli in 1:4 CA-MHB (pH 7.4), drug conc. 10
[9] = E. coli in LPM (pH 5.5), drug conc. 0.25
[10] = E. coli in LPM (pH 5.5), drug conc. 0.5
[11] = E. coli in LPM (pH 5.5), drug conc. 1
[12] = E. coli in LPM (pH 5.5), drug conc. 2.5
[13] = E. coli in LPM (pH 5.5), drug conc. 5
[14] = E. coli in LPM (pH 5.5), drug conc. 10

In the case of `N#Cc1c(N2C[C@@H]3NCCO[C@H]3C2)c(F)cc2c(=O)c(C(=O)O)cn(C3CC3)c12` [Finafloxacin], the “log10(CFU/ml) after treatment, replicate 1” value (from here on “log10(CFU/ml) … replicate 1”) ([1]; drug conc. 0.1) is reported as 8.820 log10(CFU/ml), the “log10(CFU/ml) after treatment, replicate 2” value (from here on “log10(CFU/ml) … replicate 2”) ([1]; drug conc. 0.1) is reported as 9.041 log10(CFU/ml) and the “log10(CFU/ml) after treatment, replicate 3” value (from here on “log10(CFU/ml) … replicate 3”) ([1]; drug conc. 0.1) is reported as 8.982 log10(CFU/ml). For the same molecule, the “average Δlog10(CFU/ml) (killing)” value ([1]; drug conc. 0.1) was 0.149 log10(CFU/ml), the “log10(CFU/ml) … replicate 1” value ([1]; drug conc. 0.5) was 8.857 log10(CFU/ml) and the “log10(CFU/ml) … replicate 2” value ([1]; drug conc. 0.5) was 9.176 log10(CFU/ml). For the same molecule, the “log10(CFU/ml) … replicate 3” value ([1]; drug conc. 0.5) was 9.090 log10(CFU/ml), the “average Δlog10(CFU/ml) (killing)” value ([1]; drug conc. 0.5) was 0.056 log10(CFU/ml) and the “log10(CFU/ml) … replicate 1” value ([1]; drug conc. 2.5) was 8.820 log10(CFU/ml). The “log10(CFU/ml) … replicate 2” value ([1]; drug conc. 2.5) was 8.954 log10(CFU/ml), the “log10(CFU/ml) … replicate 3” value ([1]; drug conc. 2.5) was 8.820 log10(CFU/ml) and the “average Δlog10(CFU/ml) (killing)” value ([1]; drug conc. 2.5) was 0.233 log10(CFU/ml). For the same molecule, the “log10(CFU/ml) … replicate 1” value ([1]; drug conc. 10) was 8.633 log10(CFU/ml), the “log10(CFU/ml) … replicate 2” value ([1]; drug conc. 10) was 8.996 log10(CFU/ml) and the “log10(CFU/ml) … replicate 3” value ([1]; drug conc. 10) was 8.623 log10(CFU/ml). The “average Δlog10(CFU/ml) (killing)” value ([1]; drug conc. 10) was 0.346 log10(CFU/ml), the “bactericidal effect against stationary-phase UPEC cultures” value (non-growing UPEC CFT073; 20 µM, preliminary experiments) was “bactericidal effects” and the “log10(CFU/ml) … replicate 1” value (non-growing UPEC CFT073; [3]) was 9.322 log10(CFU/ml). The “log10(CFU/ml) … replicate 2” value (non-growing UPEC CFT073; [3]) was 8.602 log10(CFU/ml), the “log10(CFU/ml) … replicate 3” value (non-growing UPEC CFT073; [3]) was 8.301 log10(CFU/ml) and the “average Δlog10(CFU/ml) (killing)” value (non-growing UPEC CFT073; E. coli in 1:4 CA-MHB (pH 7.4), drug conc. 0.25, vs 8.977 before treatment) was 0.236 log10(CFU/ml). The “log10(CFU/ml) … replicate 1” value (non-growing UPEC CFT073; [4]) was 9.255 log10(CFU/ml), the “log10(CFU/ml) … replicate 2” value (non-growing UPEC CFT073; [4]) was 8.903 log10(CFU/ml) and the “log10(CFU/ml) … replicate 3” value (non-growing UPEC CFT073; [4]) was 8.845 log10(CFU/ml). For the same molecule, the “average Δlog10(CFU/ml) (killing)” value (non-growing UPEC CFT073; E. coli in 1:4 CA-MHB (pH 7.4), drug conc. 0.5, vs 8.977 before treatment) was -0.024 log10(CFU/ml), the “log10(CFU/ml) … replicate 1” value (non-growing UPEC CFT073; [5]) was 9.322 log10(CFU/ml) and the “log10(CFU/ml) … replicate 2” value (non-growing UPEC CFT073; [5]) was 8.845 log10(CFU/ml). For the same molecule, the “log10(CFU/ml) … replicate 3” value (non-growing UPEC CFT073; [5]) was 8.699 log10(CFU/ml), the “average Δlog10(CFU/ml) (killing)” value (non-growing UPEC CFT073; E. coli in 1:4 CA-MHB (pH 7.4), drug conc. 1, vs 8.977 before treatment) was 0.022 log10(CFU/ml) and the “log10(CFU/ml) … replicate 1” value (non-growing UPEC CFT073; [6]) was 9.176 log10(CFU/ml). For the same molecule, the “log10(CFU/ml) … replicate 2” value (non-growing UPEC CFT073; [6]) was 9.041 log10(CFU/ml), the “log10(CFU/ml) … replicate 3” value (non-growing UPEC CFT073; [6]) was 8.230 log10(CFU/ml) and the “average Δlog10(CFU/ml) (killing)” value (non-growing UPEC CFT073; E. coli in 1:4 CA-MHB (pH 7.4), drug conc. 2.5, vs 8.977 before treatment) was 0.161 log10(CFU/ml). For the same molecule, the “log10(CFU/ml) … replicate 1” value (non-growing UPEC CFT073; [7]) was 8.362 log10(CFU/ml), the “log10(CFU/ml) … replicate 2” value (non-growing UPEC CFT073; [7]) was 8.230 log10(CFU/ml) and the “log10(CFU/ml) … replicate 3” value (non-growing UPEC CFT073; [7]) was 8.000 log10(CFU/ml). For the same molecule, the “average Δlog10(CFU/ml) (killing)” value (non-growing UPEC CFT073; E. coli in 1:4 CA-MHB (pH 7.4), drug conc. 5, vs 8.977 before treatment) was 0.780 log10(CFU/ml), the “log10(CFU/ml) … replicate 1” value (non-growing UPEC CFT073; [8]) was 7.491 log10(CFU/ml) and the “log10(CFU/ml) … replicate 2” value (non-growing UPEC CFT073; [8]) was 7.954 log10(CFU/ml). For the same molecule, the “log10(CFU/ml) … replicate 3” value (non-growing UPEC CFT073; [8]) was 8.079 log10(CFU/ml), the “average Δlog10(CFU/ml) (killing)” value (non-growing UPEC CFT073; E. coli in 1:4 CA-MHB (pH 7.4), drug conc. 10, vs 8.977 before treatment) was 1.136 log10(CFU/ml) and the “log10(CFU/ml) … replicate 1” value (non-growing UPEC CFT073; [9]) was 7.114 log10(CFU/ml). For the same molecule, the “log10(CFU/ml) … replicate 2” value (non-growing UPEC CFT073; [9]) was 6.230 log10(CFU/ml), the “log10(CFU/ml) … replicate 3” value (non-growing UPEC CFT073; [9]) was 8.000 log10(CFU/ml) and the “average Δlog10(CFU/ml) (killing)” value (non-growing UPEC CFT073; E. coli in LPM (pH 5.5), drug conc. 0.25, vs 7.350 before treatment) was 0.236 log10(CFU/ml). The “log10(CFU/ml) … replicate 1” value (non-growing UPEC CFT073; [10]) was 7.114 log10(CFU/ml), the “log10(CFU/ml) … replicate 2” value (non-growing UPEC CFT073; [10]) was 6.447 log10(CFU/ml) and the “log10(CFU/ml) … replicate 3” value (non-growing UPEC CFT073; [10]) was 7.699 log10(CFU/ml). For the same molecule, the “average Δlog10(CFU/ml) (killing)” value (non-growing UPEC CFT073; E. coli in LPM (pH 5.5), drug conc. 0.5, vs 7.350 before treatment) was 0.264 log10(CFU/ml), the “log10(CFU/ml) … replicate 1” value (non-growing UPEC CFT073; [11]) was 6.845 log10(CFU/ml) and the “log10(CFU/ml) … replicate 2” value (non-growing UPEC CFT073; [11]) was 6.342 log10(CFU/ml). For the same molecule, the “log10(CFU/ml) … replicate 3” value (non-growing UPEC CFT073; [11]) was 7.204 log10(CFU/ml), the “average Δlog10(CFU/ml) (killing)” value (non-growing UPEC CFT073; E. coli in LPM (pH 5.5), drug conc. 1, vs 7.350 before treatment) was 0.553 log10(CFU/ml) and the “log10(CFU/ml) … replicate 1” value (non-growing UPEC CFT073; [12]) was 6.301 log10(CFU/ml). The “log10(CFU/ml) … replicate 2” value (non-growing UPEC CFT073; [12]) was 6.699 log10(CFU/ml), the “log10(CFU/ml) … replicate 3” value (non-growing UPEC CFT073; [12]) was 6.580 log10(CFU/ml) and the “average Δlog10(CFU/ml) (killing)” value (non-growing UPEC CFT073; E. coli in LPM (pH 5.5), drug conc. 2.5, vs 7.350 before treatment) was 0.824 log10(CFU/ml). The “log10(CFU/ml) … replicate 1” value (non-growing UPEC CFT073; [13]) was 6.000 log10(CFU/ml), the “log10(CFU/ml) … replicate 2” value (non-growing UPEC CFT073; [13]) was 6.301 log10(CFU/ml) and the “log10(CFU/ml) … replicate 3” value (non-growing UPEC CFT073; [13]) was 5.903 log10(CFU/ml). The “average Δlog10(CFU/ml) (killing)” value (non-growing UPEC CFT073; E. coli in LPM (pH 5.5), drug conc. 5, vs 7.350 before treatment) was 1.282 log10(CFU/ml), the “log10(CFU/ml) … replicate 1” value (non-growing UPEC CFT073; [14]) was 6.146 log10(CFU/ml) and the “log10(CFU/ml) … replicate 2” value (non-growing UPEC CFT073; [14]) was 6.114 log10(CFU/ml). For the same molecule, the “log10(CFU/ml) … replicate 3” value (non-growing UPEC CFT073; [14]) was 5.544 log10(CFU/ml), the “average Δlog10(CFU/ml) (killing)” value (non-growing UPEC CFT073; E. coli in LPM (pH 5.5), drug conc. 10, vs 7.350 before treatment) was 1.416 log10(CFU/ml) and the “Fluorescence intensity (RFU), Mean, 2 x MIC” value ([2]; TC7 cells infected with GFP-expressing S. flexneri, 14 h treatment, 2 x MIC) was 5014.06 RFU. For the same molecule, the “Fluorescence intensity (RFU), Mean, 4 x MIC” value ([2]; TC7 cells infected with GFP-expressing S. flexneri, 14 h treatment, 4 x MIC) was 3886.5 RFU, the “Fluorescence intensity (RFU), Mean, 8 x MIC” value ([2]; TC7 cells infected with GFP-expressing S. flexneri, 14 h treatment, 8 x MIC) was 3157.03 RFU and the “Fluorescence intensity (RFU), Mean, 16 x MIC” value ([2]; TC7 cells infected with GFP-expressing S. flexneri, 14 h treatment, 16 x MIC) was 2833.69 RFU. The “Fluorescence intensity (RFU), Mean, 32 x MIC” value ([2]; TC7 cells infected with GFP-expressing S. flexneri, 14 h treatment, 32 x MIC) was 2227.19 RFU, the “Fluorescence intensity (RFU), Mean, MIC” value ([2]; TC7 cells infected with GFP-expressing S. flexneri, 14 h treatment, MIC) was 6107.08 RFU and the IC50 ([2]; intracellular S. flexneri in TC7 cells, GFP fluorescence after 14 h treatment, read-out: IC50) was 0.202 µM.
